Assay results: patent publication US11925607B2, “Ketamine composition for use in a method of treatment of depression by pulmonary administration” (Celon Pharma S.A., priority 2018, dated 2024)

What was measured:
[1] = nebulized esketamine hydrochloride saline solution; cited from earlier work
[2] = test system: patients with treatment-resistant depression; conditions: cited from earlier work
[3] = cited from earlier work
[4] = cited from earlier work; remark: listed apart in the source
[5] = 0.20 mg/kg 40 minutes intravenous infusion, predicted from literature data; cited from earlier work
healthy volunteers = assay: Adverse effects monitoring in clinical study, assessed by a psychiatrist; format: in vivo, human; conditions: pulmonary administration
Method: Both in Part A and Part B of the study the adverse effects were monitored and assessed by a psychiatrist. The summary of the adverse effects is presented in FIG. 10 (Part A) and FIG. 11 (Part B). […] Psychomimetic effects were transient, lasting up to 30 minutes following administration. […] In Part C of the study adverse effects were monitored and assessed by a psychiatrist after each sequence of administration, i.e. on Day 1, Day 4, Day 8 and Day 11. The summary of adverse effects for Part C is presented on FIGS. 12A to 12D for Day 1, Day 4, Day 8 and Day 11, respectively. […] Psychomimetic effects were transient, lasting up to 30 minutes following administration.

[6] = Pharmacokinetics of inhaled esketamine dry powder in healthy volunteers, clinical study; format: in vivo, human; conditions: pulmonary administration, overall conclusion
Method: Esketamine hydrochloride dry powder formulation of Example 2 was administered to healthy volunteers pulmonary, i.e. directly to the lungs using dry powder inhaler (DPI) (by self-administration), under supervision of medical personnel.
One puff of dry powder formulation contained 4.6 mg of esketamine hydrochloride, corresponding to 4 mg of esketamine free base and excipients 18.22 mg of lactose monohydrate and 0.18 mg of magnesium stearate.
A single dose was an inhalation events consisting of 1 to 6 puffs, i.e. 4 to 24 mg of esketamine free base nominal dose.
In part A of the study, designed as a one-centre single ascending dose, the medicine was delivered in a single dose once in one day (up to 6 consecutive puffs) to 18 healthy volunteer subjects. Subjects were divided into 6 cohorts, cohorts receiving 1, 2, 3, 4, 5 or 6 puffs in a single dose (inhalation event), respectively. Collection of blood samples for determination of esketamine and esnorketamine metabolite concentration and calculation of pharmacokinetic parameters was performed for 24 hours following the start of the test in the administration day. The aim of the study was to determine the amount of puffs in an inhalation event needed to obtain plasma concentration similar to that sufficient to achieve antidepressant effect as for 0.20 mg/kg 40 minutes intravenous infusion. […]

NMDA receptor = conditions: cited from earlier work
[7] = after oral administration of ketamine
[8] = after intravenous infusion of racemic ketamine

In the case of `CNC1(c2ccccc2Cl)CCCCC1=O` (racemic) [ketamine], the inhaled bioavailability [1] is listed as “reduced”, the “fraction of patients with treatment-resistant depression responsive” value ([2]; human, in vivo) is listed as “about ⅔” and the bioavailability ([3]; orally administered) is listed as 16-20%. The “half-period of concentration fall” value ([4]; after intravenous infusion 0.5 mg/kg for 40 minutes) was “below 2 hours” and the “systemic concentration of parent drug” value ([4]; intravenous infusion 0.5 mg/kg for 40 minutes, maintained about 40 minutes) was “about 200 ng/ml”.

In the case of `CN[C@]1(c2ccccc2Cl)CCCCC1=O` [esketamine], the “concentration at 40 min of infusion” value [5] is listed as 60 to 100 ng/mL, the antidepressant effect ([2]; TRD patients, 40-minute i.v. infusion of 0.20 mg/kg or 0.40 mg/kg (Singh et al.)) is listed as “rapid onset of robust antidepressant effects” and the “safety of plasma concentration profile” value (healthy volunteers) is listed as “safe for chronic administration”. The Plasma concentration profile [6] was “quite smooth, consistent with a target profile”.

For `NC1(c2ccccc2Cl)CCCCC1=O` (centres unmarked) [norketamine], the “activity on NMDA receptor relative to ketamine” value (NMDA receptor) is listed as “many times less active than ketamine”, the “AUC as % of ketamine” value [3, 7] is listed as “exceeding 1000%” and the “level as % of ketamine level” value [3, 7] is listed as 500-1000%. For the same compound, the “maximum concentration as % of ketamine concentration” value [4, 8] was 10-20% and the “percentage of AUC norketamine to ketamine” value [4, 8] was 20-40%.
